Where a name gives a salt, the structure may show the parent alone.
Assays:
[1] = target: T1, cloned human α1D receptor (Homo sapiens, UniProt P25100); assay: Radioligand binding assay, [3H] prazosin displacement, cloned human α1D receptor; conditions: [3H] prazosin 0.5 nM, membrane preparations of transfected LM(tk-) cells; read-out: hα1D Ki
T1 sequence (P25100 1-572): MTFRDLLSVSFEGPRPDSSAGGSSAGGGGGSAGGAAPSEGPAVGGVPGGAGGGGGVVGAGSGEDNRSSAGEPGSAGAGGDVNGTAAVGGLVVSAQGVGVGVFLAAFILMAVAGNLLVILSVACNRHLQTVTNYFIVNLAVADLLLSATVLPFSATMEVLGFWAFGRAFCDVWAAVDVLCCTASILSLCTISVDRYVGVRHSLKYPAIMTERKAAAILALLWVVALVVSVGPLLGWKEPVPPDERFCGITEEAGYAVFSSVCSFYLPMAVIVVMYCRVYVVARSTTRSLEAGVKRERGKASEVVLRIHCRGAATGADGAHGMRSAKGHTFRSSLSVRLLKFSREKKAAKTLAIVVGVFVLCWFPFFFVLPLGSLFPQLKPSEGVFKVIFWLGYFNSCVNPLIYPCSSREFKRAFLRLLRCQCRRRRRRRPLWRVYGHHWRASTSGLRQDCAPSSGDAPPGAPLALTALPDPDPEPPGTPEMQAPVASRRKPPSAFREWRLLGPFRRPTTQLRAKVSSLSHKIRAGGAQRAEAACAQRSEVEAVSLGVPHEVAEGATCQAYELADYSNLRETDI
Protocol: (§1) These cell lines were prepared by transfecting the cloned cDNA or cloned genomic DNA or constructs containing both genomic DNA and cDNA encoding the human α-adrenergic receptors as follows:
The cells were grown, in a controlled environment (37° C., 5% CO2), as monolayers in Dulbecco's modified Eagle's Medium (GIBCO, Grand Island, N.Y.) containing 25 mM glucose and supplemented with 10% bovine calf serum, 100 units/ml penicillin g, and 100 μg/ml streptomycin sulfate.
(§2) Transfected cells from culture flasks were scraped into 5 ml of 5 mM Tris-HCl, 5 mM EDTA, pH 7.5, and lysed by sonication. The cell lysates were centrifuged at 1000 rpm for 5 min at 4° C., and the supernatant was centrifuged at 30,000×g for 20 min at 4° C. The pellet was suspended in 50 mM Tris-HCl, 1 mM MgCl2, and 0.1% ascorbic acid at pH 7.5. Binding of the α1 antagonist [^3H] prazosin (0.5 nM, specific activity 76.2 Ci/mmol) to membrane preparations of LM(tk−) cells was done in a final volume of 0.25 ml and incubated at 37° C. for 20 min. Nonspecific binding was determined in the presence of 10 μM phentolamine. The reaction was stopped by filtration through GF/B filters using a cell harvester.

[2] = target: T2, cloned human α1B receptor (Homo sapiens, UniProt P35368); assay: Radioligand binding assay, [3H] prazosin displacement, cloned human α1B receptor; conditions: [3H] prazosin 0.5 nM, membrane preparations of transfected LM(tk-) cells; read-out: hα1B Ki
T2 sequence (P35368 1-520): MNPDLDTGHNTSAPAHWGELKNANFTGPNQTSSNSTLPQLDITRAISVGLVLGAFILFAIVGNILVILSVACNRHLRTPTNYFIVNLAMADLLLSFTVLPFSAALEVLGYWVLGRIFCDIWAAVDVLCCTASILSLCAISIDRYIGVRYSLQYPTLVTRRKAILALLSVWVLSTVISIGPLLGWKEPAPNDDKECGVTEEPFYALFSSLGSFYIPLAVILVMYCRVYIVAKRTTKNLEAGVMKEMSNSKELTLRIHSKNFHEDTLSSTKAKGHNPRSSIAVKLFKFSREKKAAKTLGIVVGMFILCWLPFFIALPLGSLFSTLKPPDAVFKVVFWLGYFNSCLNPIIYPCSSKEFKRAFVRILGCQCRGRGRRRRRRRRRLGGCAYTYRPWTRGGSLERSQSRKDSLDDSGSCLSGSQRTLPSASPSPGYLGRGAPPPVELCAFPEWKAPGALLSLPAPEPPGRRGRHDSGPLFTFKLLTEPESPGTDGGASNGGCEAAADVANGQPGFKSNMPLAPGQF
Protocol: as §1
The construct involved ligating the full-length containing EcoRI brainstem cDNA fragment from λ ZapII into the expression vector. Stable cell lines were selected as described above.
as §2

[3] = target: T3, cloned human α1A receptor (Homo sapiens, UniProt P35348); assay: Radioligand binding assay, [3H] prazosin displacement, cloned human α1A receptor; conditions: [3H] prazosin 0.5 nM, membrane preparations of transfected LM(tk-) cells; read-out: hα1A Ki
T3 sequence (P35348 1-466): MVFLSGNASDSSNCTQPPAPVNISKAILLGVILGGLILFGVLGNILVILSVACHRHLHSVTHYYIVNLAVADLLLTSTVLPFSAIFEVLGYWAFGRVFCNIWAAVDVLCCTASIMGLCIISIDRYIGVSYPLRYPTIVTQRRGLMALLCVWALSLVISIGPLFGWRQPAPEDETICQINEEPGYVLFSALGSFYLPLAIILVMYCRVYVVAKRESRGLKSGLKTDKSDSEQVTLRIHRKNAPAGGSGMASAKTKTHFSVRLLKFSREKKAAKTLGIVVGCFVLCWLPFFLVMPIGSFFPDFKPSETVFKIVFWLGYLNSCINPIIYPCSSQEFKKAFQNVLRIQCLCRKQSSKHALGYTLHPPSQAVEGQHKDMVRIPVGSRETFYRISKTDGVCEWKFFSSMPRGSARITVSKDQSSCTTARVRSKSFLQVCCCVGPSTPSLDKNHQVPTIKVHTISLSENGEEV
Protocol: as §1
The construct involved ligating three partial overlapping fragments: a 5′ 0.6 kb HincII genomic clone, a central 1.8 EcoRI hippocampal cDNA clone, and a 3′ 0.6 Kb PstI genomic clone. The hippocampal cDNA fragment overlaps with the 5′ and 3′ genomic clones so that the HincII and PstI sites at the 5′ and 3′ ends of the cDNA clone, respectively, were utilized for ligation. This full-length clone was cloned into the KpnI site of the expression vector, using the 5′ and 3′ KpnI sites of the fragment, derived from vector (i.e., pBluescript) and 3′-untranslated sequences, respectively. Stable cell lines were selected as described above.
as §2

Row | melting point | Ki [1] | Ki [2] | Ki [3] | SMILES
1 | 139 to 141 °C | – | – | – | Cl.N#CC1(c2ccccc2)CCN(CCCNC(=O)N2C(=O)OCC2(c2ccccc2)c2ccccc2)CC1
2 | 116 to 118 °C | – | – | – | CC(=O)OC1(c2ccccc2)CCN(CCCNC(=O)N2C(=O)OC(C)(C)C2c2ccc(F)c(F)c2)CC1.Cl (stereo not drawn)
3 | 120 to 122 °C | – | – | – | CC1(C)OC(=O)N(C(=O)NCC(F)CN2CCC(C#N)(c3ccccc3)CC2)C1c1ccc(F)c(F)c1.Cl (stereo not drawn)
4 | 176 to 178 °C | – | – | – | Cl.Cl.O=C1OCC(c2ccc(F)c(F)c2)N1C(=O)N1CCCC(CN2CCC(c3ccccn3)CC2)C1 (stereo not drawn)
5 | 149 to 151 °C | – | – | – | O=C(NCCCN1CCC(c2ccccc2)(c2ccco2)CC1)N1C(=O)OCC1c1ccc(F)c(F)c1 (stereo not drawn) (as salt: HCl)
6 | 148 to 151 °C | – | – | – | N#CC1(c2ccccc2)CCC(N2CCN(C(=O)N3C(=O)OCC3c3ccc(F)c(F)c3)CC2)CC1 (stereo not drawn) (as salt: HCl) [Example 34, 4-{4-[4-(3,4-Difluoro-phenyl)-2-oxo-oxazolidine-3-carbonyl]-piperazin-1-yl}-1-phenyl-cyclohexanecarbonitrile]
7 | 174 to 178 °C | – | – | – | COc1ccccc1N1CCN(CCCCCN2C(=O)OCC2c2ccc(F)c(F)c2)CC1 (stereo not drawn) (as salt: hydrochloride) [Example 2, 4-(3,4-Difluorophenyl)-3-{5-[4-(2-methoxy-phenyl)-piperazin-1-yl]-pentyl}-oxazolidin-2-one]
8 | – | 11 nM | 21 nM | 0.5 nM | COc1ccccc1N1CCN(CCCCCN2C(=O)OCC2c2ccc(F)c(F)c2)CC1 (stereo not drawn) [Example 2, 4-(3,4-Difluorophenyl)-3-{5-[4-(2-methoxy-phenyl)-piperazin-1-yl]-pentyl}-oxazolidin-2-one]
9 | 135 to 137 °C | 3660 nM | 4010 nM | 0.7 nM | CC1(C)OC(=O)N(C(=O)NCC(O)CN2CCC(C#N)(c3ccccc3)CC2)C1c1ccc(F)c(F)c1.Cl (stereo not drawn) [Example 28, N3-[3-(4-Cyano-4-phenylpiperidino)-2-hydroxypropyl]-4-(3,4-difluorophenyl)-5,5-dimethyl-2-oxo-oxazolidine-3-carboxamide Hydrochloride]

Row | SMILES | melting point | Ki [1] | Ki [2] | Ki [3]
10 | COC(=O)C1(c2ccccc2)CCN(CCNC(=O)N2C(=O)OCC2c2ccc(F)c(F)c2)CC1 (stereo not drawn) (as salt: hydrochloride) [Example 21, 4-(3,4-Difluorophenyl)-2-oxo-oxazolidine-3-carboxylic Acid{2-[4-phenylpiperidine-4-(carboxylic Acid Methyl Ester)]ethyl}amide] | 80 to 85 °C | – | – | –
11 | COC(=O)C1(c2ccccc2)CCN(CCNC(=O)N2C(=O)OCC2c2ccc(F)c(F)c2)CC1 (stereo not drawn) [Example 21, 4-(3,4-Difluorophenyl)-2-oxo-oxazolidine-3-carboxylic Acid{2-[4-phenylpiperidine-4-(carboxylic Acid Methyl Ester)]ethyl}amide] | – | 2460 nM | 891 nM | 21 nM
